pEC50: −log10 of the molar value. A value given as a limit tells only on which side of the number the result lay.

The test system of the first assay is HCV 1b_Huh-Luc/Neo-ET cell line persistently expressing a bicistronic genotype 1b replicon in Huh 7 cells. Put plainly: HCV replicon assay (luciferase readout, 72 h). Type of assay: cell-based, HCV genotype 1b. Particulars: Hepatitis C virus, Huh-7, 72 h, read-out: Inhibition of HCV. The procedure, abridged:
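EC50 values come from a four-parameter fit of luciferase signal as % of untreated control, repeated across several determinations. The signal is from the HCV 1b_Huh-Luc/Neo-ET replicon line, dosed in triplicate one day post-plating and incubated 72 h before Bright-Glo readout.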
For orientation: In antiviral work, replicon cells carry a viral genome segment that copies itself.
As to `COC(=O)N[C@H](C(=O)N1CCC[C@H]1c1nc2ccc(C#Cc3ccc4nc([C@@H]5CCCN5C(=O)[C@@H](NC(=O)OC)C(C)C)[nH]c4c3)cc2[nH]1)C(C)C` [Compound 852], the pEC50 was more than 9.00.

The assay is the same for the next values; noted with them: Hepatitis C virus, Huh-7, 72 h, read-out: Inhibition of HCV genotype 1b.
In the case of `COC(=O)N[C@H](C(=O)N1CCC[C@H]1c1ncc(-c2ccc(C#Cc3ccc4nc([C@@H]5CCCN5C(=O)[C@@H](c5ccccc5)N(C)C)[nH]c4c3)cc2)[nH]1)C(C)C` [Compound 860], the pEC50 was more than 9.00.

As for `COC(=O)N[C@H](C(=O)N1CCC[C@H]1c1ncc(-c2ccc3nc(C#Cc4ccc5nc([C@@H]6CCCN6C(=O)[C@@H](NC(=O)OC)C6CCOCC6)[nH]c5c4)ccc3c2)[nH]1)C1CCOCC1` [Compound 1108], the pEC50 was more than 9.00. The same measure, in the same setting: for `COC(=O)N[C@@H](C(=O)N1CCC[C@H]1c1ncc(-c2ccc(C#Cc3ccc(-c4cnc([C@@H]5CCCN5C(=O)[C@H](NS(C)(=O)=O)c5ccccc5)[nH]4)cc3)cc2)[nH]1)c1ccccc1` [Compound 225] the value was more than 9.00; for `COC[C@H](NC(=O)OC)C(=O)N1CCC[C@H]1c1ncc(-c2ccc(C#Cc3ccc(-c4cnc([C@@H]5CCCN5C(=O)[C@H](COC)NC(=O)OC)[nH]4)cc3)cc2)[nH]1` [Compound 976], more than 9.00.

In the case of `C[C@H]1OC(=O)N[C@@H]1C(=O)N1CCC[C@H]1c1ncc(-c2ccc(C#Cc3ccc(-c4cnc([C@@H]5CCCN5C(=O)[C@H]5NC(=O)O[C@@H]5C)[nH]4)cc3)cc2)[nH]1` [Compound 979], the pEC50 was 6.00 to 8.00. On the same count and under the same terms, for `COC(=O)N[C@H](C(=O)N1CCC[C@H]1c1ncc(-c2cccc3c(C#Cc4ccc5nc([C@@H]6CCCN6C(=O)[C@@H](NC(=O)OC)C(C)C)[nH]c5c4)cccc23)[nH]1)C(C)C` [Compound 1112] the value was more than 9.00. For the compound `COC(=O)N[C@H](C(=O)N1CCC[C@H]1c1ncc(-c2ccc(C#Cc3ccc(-c4cnc([C@@H]5CCCN5C(=O)[C@H](NC(=O)OC)c5ccccc5)[nH]4)cc3)cc2)[nH]1)C(C)C` [Compound 1002], the pEC50 is more than 9.00. Still for that read-out and setting: in the case of `COC(=O)N[C@@H](C(=O)N1CCC[C@H]1c1ncc(C#Cc2ccc(-c3ccc(-c4cnc([C@@H]5CCCN5C(=O)[C@@H](c5ccccc5)N(C)C)[nH]4)cc3)cc2)[nH]1)c1ccccc1` [Compound 755] it was more than 9.00. On the same count and under the same terms, in the case of `COC(=O)N[C@@H](C(=O)N1CCC[C@H]1c1ncc(-c2ccc(C#Cc3ccc(-c4cnc([C@@H]5CCCN5C(=O)[C@H]5CCCN5C)[nH]4)cc3)cc2)[nH]1)c1ccccc1` [Compound 187] it was more than 9.00.

As for `CN(C)[C@@H](C(=O)N1CCC[C@H]1c1ncc(C#Cc2ccc(-c3cnc([C@@H]4CCCN4C(=O)[C@H](NC(=O)C4CC4)c4ccccc4)[nH]3)cc2)[nH]1)c1ccccc1` [Compound 133], the pEC50 was more than 9.00. Same read-out and setting: for `COC(=O)N[C@H](C(=O)N1CCCC[C@H]1c1ncc(-c2ccc(C#Cc3ccc4nc([C@@H]5CCCN5C(=O)[C@@H](NC(=O)OC)C(C)C)[nH]c4c3)cc2)[nH]1)C(C)C` [Compound 1032] the value was more than 9.00; for `COC(=O)N[C@@H](C(=O)N1CCC[C@H]1c1ncc(-c2ccc(C#Cc3ccc(-c4cnc([C@@H]5CCCN5C(=O)[C@H](NC(=O)OC)C(C)C)[nH]4)cc3)cc2)[nH]1)C(C)C` [Compound 292], less than 6.00.

Turning to `COC(=O)N[C@H](C(=O)N[C@@H](C)c1ncc(-c2ccc(C#Cc3ccc4nc([C@H](C)NC(=O)[C@@H](NC(=O)OC)C(C)C)[nH]c4c3)cc2)[nH]1)C(C)C` [Compound 868], the pEC50 is more than 9.00. The same measure, in the same setting: in the case of `O=C([C@@H](c1ccccc1)N1CCCC1)N1CCC[C@H]1c1ncc(-c2ccc(C#Cc3ccc(-c4cnc([C@@H]5CCCN5C(=O)[C@@H](c5ccccc5)N5CCCC5)[nH]4)cc3)cc2)[nH]1` [Compound 194] it was more than 9.00; in that of `CC(C)[C@H](NC(=O)N1CCOCC1)C(=O)N1CCC[C@H]1c1ncc(-c2ccc(C#Cc3ccc(-c4cnc([C@@H]5CCCN5C(=O)[C@@H](NC(=O)N5CCOCC5)C(C)C)[nH]4)cc3)cc2)[nH]1` [Compound 285], less than 6.00; in that of `CC(C)(C)OC(=O)N[C@@H](C(=O)N1CCC[C@H]1C(=O)NCc1ccc(C#Cc2ccc(-c3cnc([C@@H]4CCCN4C(=O)[C@H](NC(=O)OC(C)(C)C)c4ccccc4)[nH]3)cc2)cc1)c1ccccc1` [Compound 189], more than 9.00. On the same count and under the same terms, in the case of `COC(=O)NC1(C(=O)N2CCC[C@H]2c2ncc(-c3ccc(C#Cc4ccc5nc([C@@H]6CCCN6C(=O)C6(NC(=O)OC)CC6)[nH]c5c4)cc3)[nH]2)CC1` [Compound 1043] it was 6.00 to 8.00; in that of `CC(C)(C)OC(=O)NCC(=O)N1CCC[C@H]1c1ncc(C#Cc2ccc(-c3cnc([C@@H]4CCCN4C(=O)CNC(=O)OC(C)(C)C)[nH]3)cc2)[nH]1` [Compound 103], 6.00 to 8.00. Still for that read-out and setting: in the case of `COC(=O)N[C@@H]1CCC[C@H]1C(=O)N1CCC[C@H]1c1ncc(-c2ccc(C#Cc3ccc4nc([C@@H]5CCCN5C(=O)[C@@H]5CCC[C@H]5NC(=O)OC)[nH]c4c3)cc2)[nH]1` [Compound 1058] it was 6.00 to 8.00; in that of `[2H]C([2H])([2H])C([2H])(C([2H])([2H])[2H])[C@]([2H])(NC(=O)OC)C(=O)N1CCC[C@H]1c1nc2ccc(C#Cc3ccc4c(c3)CCc3nc([C@@H]5CCCN5C(=O)[C@@H](NC(=O)OC)C(C)C)[nH]c3-4)cc2[nH]1` [Compound 1106], more than 9.00; in that of `COC(=O)N[C@H](C(=O)N[C@@H](C)c1ncc(-c2ccc(C#Cc3ccc(-c4cnc([C@H](C)NC(=O)[C@@H](NC(=O)OC)C(C)C)[nH]4)cc3)cc2)[nH]1)C(C)C` [Compound 951], more than 9.00. As for `O=C(N[C@@H](C(=O)N1CCC[C@H]1c1nc(-c2ccc3cc(C#Cc4cnc([C@@H]5CCCN5C(=O)[C@H](NC(=O)N5CC[C@H](O)C5)c5ccccc5)[nH]4)ccc3c2)c[nH]1)c1ccccc1)N1CC[C@H](O)C1` [Compound 806], the pEC50 was 8.00 to 9.00. `CC(C)[C@H](NC(=O)N1CCC(O)CC1)C(=O)N1CCC[C@H]1c1ncc(-c2ccc(C#Cc3ccc(-c4cnc([C@@H]5CCCN5C(=O)[C@@H](NC(=O)N5CCC(O)CC5)C(C)C)[nH]4)cc3)cc2)[nH]1` [Compound 286]: the pEC50 was less than 6.00.

Regarding `COCCOc1c(C#Cc2ccc3nc([C@@H]4CCCN4C(=O)[C@@H](NC(=O)OC)C(C)C)[nH]c3c2)ccc(-c2cnc([C@@H]3CCCN3C(=O)[C@H](NC(=O)OC)C(C)C)[nH]2)c1OCCOC` [Compound 1066], the pEC50 was more than 9.00. On the same count and under the same terms, in the case of `CC(C)[C@H](NC(=O)C1CC1)C(=O)N1CCC[C@H]1c1ncc(-c2ccc(C#Cc3ccc(-c4cnc([C@@H]5CCCN5C(=O)[C@@H](NC(=O)C5CC5)C(C)C)[nH]4)cc3)cc2)[nH]1` [Compound 170] it was 8.00 to 9.00. The same measure, in the same setting: for `O=C(N[C@@H](C(=O)N1CCC[C@H]1c1ncc(-c2ccc(C#Cc3ccc(-c4cnc([C@@H]5CCCN5C(=O)[C@H](NC(=O)N5CCCCC5)c5ccccc5)[nH]4)cc3)cc2)[nH]1)c1ccccc1)N1CCCCC1` [Compound 250] the value was more than 9.00; for `COC(=O)N[C@H](C(=O)N1CCC[C@H]1c1ncc(-c2ccc(C#Cc3ccc(-c4cnc([C@@H]5CCCN5C(=O)[C@@H](NC5CCOCC5)C(C)C)[nH]4)cc3)cc2)[nH]1)C(C)C` [Compound 1001], 8.00 to 9.00; for `COC(=O)N[C@@H](CCC(=O)O)C(=O)N1CCC[C@H]1c1ncc(-c2ccc(C#Cc3ccc4nc([C@@H]5CCCN5C(=O)[C@H](CCC(=O)O)NC(=O)OC)[nH]c4c3)cc2)[nH]1` [Compound 1047], 6.00 to 8.00. Same read-out and setting: for `COC(=O)N[C@H](C(=O)N1CCC[C@H]1c1nc(-c2ccc3cc(C#Cc4cnc([C@@H]5CCCN5C(=O)[C@@H](NC(=O)OC)C5CCOCC5)[nH]4)ccc3c2)c[nH]1)C(C)C` [Compound 1079] the value was more than 9.00. With `COC(=O)N[C@H](C(=O)N1CCC[C@H]1c1ncc(-c2ccc(C#Cc3ccc4nc([C@@H]5CCCN5C(=O)[C@@H](NC(=O)OC)C(C)C)[nH]c4c3)cc2)[nH]1)C(C)C` [Compound 802], the pEC50 is more than 9.00.

Staying with this assay, now noted: Hepatitis C virus, Huh-7, read-out: Inhibition of HCV genotype 1b.
As for `COC(=O)N[C@@H](C(=O)N1CCC[C@H]1c1ncc(-c2ccc(C#Cc3ccc(-c4cnc([C@@H]5CCCN5C(=O)[C@H](NC(=O)OC)c5ccccc5)[nH]4)cc3C(=O)OC)cc2)[nH]1)c1ccccc1` [Compound 1201], the pEC50 was more than 9.00. Still for that read-out and setting: in the case of `CC[C@H](C)[C@H](NC(=O)OC)C(=O)N1CCC[C@H]1c1ncc(-c2ccc3cc(C#Cc4[nH]c([C@@H]5CCCN5C(=O)[C@@H](NC(=O)OC)[C@@H](C)OC)nc4C(F)(F)F)ccc3c2)[nH]1` [Compound 1259] it was more than 9.00; in that of `COC(=O)N[C@H](C(=O)N1CCC[C@H]1c1ncc(-c2ccc(C#Cc3ccc4nc([C@@H]5CCCN5C(=O)[C@@H](NC(=O)OC)C(C)C)[nH]c4n3)cc2)[nH]1)C(C)C` [Compound 1249], more than 9.00. On to `COC(=O)N[C@H](C(=O)N[C@@H](C)c1ncc(-c2ccc(C#Cc3ccc4nc([C@@H]5CCCN5C(=O)[C@@H](NC(=O)OC)C5CCOCC5)[nH]c4c3)cc2)[nH]1)C1CCOCC1` [Compound 1227], for which the pEC50 was 8.00 to 9.00. As for `COC(=O)N[C@H](C(=O)N1CCC[C@H]1c1ncc(-c2ccc(C#Cc3ccc(-c4cnc([C@@H]5CCCN5C(=O)[C@H](NC(=O)OC)c5ccsc5)[nH]4)cc3)cc2)[nH]1)[C@@H](C)OC` [Compound 1212], the pEC50 was more than 9.00.

As to `COC(=O)N[C@H](C(=O)N1CCC[C@H]1c1ncc(-c2ccc(C#Cc3ccc4c(ccc5nc([C@@H]6CCCN6C(=O)[C@@H](NC(=O)OC)[C@@H](C)OC)[nH]c54)c3)cc2)[nH]1)C(C)C` [Compound 1271], the pEC50 was more than 9.00. Take `COC(=O)N[C@H](C(=O)N[C@@H](C)c1ncc(-c2ccc(C#Cc3ccc4nc([C@@H]5CCCN5C(=O)[C@@H](NC(=O)OC)C(C)C)[nH]c4c3)cc2)[nH]1)C(C)C` [Compound 1225]: the pEC50 was more than 9.00. On the same count and under the same terms, in the case of `COC(=O)N[C@H](C(=O)N1CCC[C@H]1c1nc2ccc(C#Cc3ccc(-c4cnc([C@@H]5CCCN5C(=O)[C@@H](NC(=O)OC)[C@@H](C)OC)[nH]4)cc3)cc2[nH]1)C(C)C` [Compound 1235] it was more than 9.00.

The values are drawn from patent publication US20130296311A1, “INHIBITORS OF HCV NS5A” (PRESIDIO PHARMACEUTICALS, INC., priority 2010, published 2013).
